Where no end group is shown, it is not given here.
Assays:
[1] = system: female ICR mice; assay: Induction of catatonia in mice by i.c. injection of serum; assay type: in vivo; conditions: simultaneous i.c. injection 0.2 mg
Description: It is well known that large doses of opiate-like substances can induce a catatonic state in animals which is inhibited or reversed by treatment with the opiate antagonist naloxone. In analogy with the results in earlier examples, the ability of a peptide (gamma-ODNE) complementary to an opiate peptide, gamma-endorphin, to induce antibodies that have opiate properties was examined.
Gamma-ODNE (Example II) was conjugated to Keyhole Limpet Hemocyanin ([…]) and used with Freund's adjuvant to generate rabbit antibodies in a conventional manner (see Example 1F). Both normal and induced rabbit sera were injected intracerebroventicularly (i.c.) into female ICR mice.

[2] = target: T1, bovine gamma-endorphin (Bos taurus, UniProt P01190); assay: ELISA binding of gamma-endorphin to coated wells; conditions: gamma-odne 40 ug/well; compared with insulin or BSA coating
T1 construct: purchased Boehringer Mannheim (Indianapolis, IN); host or cells: chemical synthesis
Experimental: The wells of a 96-well round-bottomed microtiter plate were coated (by the procedure described in Example 1B) with gamma-odne (40 ug/well), insulin (20U/well) or bovine serum albumin (BSA, 200 ug/well). Varying concentrations of gamma-endorphin (as shown on the abscissa in FIG. 7) were incubated in the coated wells for 1 hr, after which the plates were thrice washed with PBS-Tween buffer. The wells were then treated with rabbit antibody for gamma-endorphin, washed, and then treated with goat antibody against rabbit immunoglobulin the goat antibody being conjugated to alkaline phosphatase. After washing away unbound goat antibody conjugate, the bound alkaline phosphatase activity was measured with p-nitrophenylphosphate as earlier described. The results of the above manipulations are shown in FIG. 7 where the extent of absorbance at 405 nm reflects the degree of gamma-endorphin binding to wells coated with gamma-odne, insulin or BSA. […] The shaded area in FIG. 7 represents the extent of gamma-endorphin binding in the presence of soluble excess of gamma-odne. Thus it is shown that a second pair of complementary peptides interacts in a manner showing affinity and apparent congruence.

[3] = target: T2, opiate receptors on NG108-15 cells (Mus musculus, UniProt P32300); assay: Binding of ^125 I-beta-endorphin to NG108-15 cells; conditions: read-out: % Inhibition of Specific ^125 I-beta-endorphin
T2 construct: opiate receptors on NG108-15 cells; endogenous in cells; host or cells: NG108-15 cells
Experimental: Seventy percent of the total binding was specific by conventional criteria.
For this experiment, ^125 I-beta-endorphin was preincubated 30 minutes with various amounts of the complementary peptide, gamma-ODNE, before a 30 minute (37° C.) incubation with NG108-15 cells in microtiter wells. After the incubation, cells were washed 3 times and cell associated radioactivity wad determined with a Packard Multi-Prias gamma counter.

[4] = system: HTCA; assay: Solid phase radiobinding assay for ACTH in serum on HTCA-coated wells; assay type: binding; conditions: for Log10 Dilution at which 50% inhibition occurred: graphic interpolation
Experimental: Complementary peptide (HTCA) was dissolved in phosphate buffered saline (PBS) at 1 mg/ml and 200 ul aliquots were placed in wells of a 96 well polyvinyl assay plate (Microtest III, Falcon Cat. #3911). HTCA was allowed to coat the wells overnight at 4° C. The coating solution was removed and the wells were washed three times with PBS. Radiolabeled ACTH (^125 I-ACTH, New England Nuclear NEX-65) was diluted into PBS containing 0.0005% TWEEN-20 so as to deliver 50 pg (or about 30,000 cpm) in a 20 ul volume.
Serum samples were prepared in a 96 well tissue culture plate by serial dilution of serum into PBS/TWEEN 20 to give a final volume of 180 ul/well. The serum samples were then transferred to the HTCA coated a ssay plate and allowed to incubate. Finally, 20 ul of ^125 I-ACTH solution was added, incubated, and the total sample of 200 ul was removed. After washing three times with PBS, the wells were cut from the plate and counted in a gamma counter.
Serum samples used in this study contained either 50 pg/ml or 500 pg/ml of ACTH added to fetal calf serum (FCS).

[5] = system: mouse adrenal tumor (Y-1) cells; assay: Glucocorticoid hormone production by Y-1 cells (corticosterone RIA); assay type: cell-based; conditions: ACTH 10 microunits/well, 18 hrs
Experimental: An induction of glucocorticoid hormone production by ACTH and anti-HTCA was found with cultured mammalian cells. Duplicate cultures of mouse adrenal tumor (Y-1) cells in microtiter plates were treated with culture media, ACTH (10 microunits/well) or various dilutions of the anti-HTCA.
^a Duplicate cultures of mouse adrenal (Y1) cells in microtiter plate
were treated with culture media, ACTH (10 microunits/well) or the
indicated dilutions of antibody to HTCA. After 18 hrs incubation at
37° in 4% CO2, replicate cultures were pooled and assayed for
glucocorticoid hormone production by a radioimmunoassay (RIA) for […]

[6] = system: antibody to ACTH; assay: Competition in standard RIA for ACTH; assay type: binding
Experimental: Using a standard Radioimmunoassay (RIA) for ACTH (Immuno Nuclear Corporation, CAT. #2400), the ability of antibodies to a peptide (HTCA) complementary to ACTH to bind with antibodies to ACTH was determined. In a Standard RIA for ACTH, unlabelled ACTH is added in known amounts to a solution of radiolabelled ACTH and antibody to ACTH to compete away the binding of radiolabelled ACTH to its antibody. The amount of radiolabel bound is determined by immunoprecipitating the antibody and counting the radioactivity of the precipitiate.
In the experiment, unlabelled ACTH, immunoglobulin from rabbits immunized with the complementary peptide HTCA, and immunoglobulins from normal rabbits were used to compete with radiolabelled ACTH in the RIA. Immunoglobulin (35 mg/ml) solutions were prepared in phosphate buffered saline, and ACTH and ^125 I-ACTH were prepared as specified in the RIA kit.

[7] = system: mouse adrenal tumor (Y-1) cells; assay: Binding of anti-HTCA to affixed Y-1 cells (ELISA); conditions: FIG. 5
Experimental: Mouse adrenal tumor (Y-1) cells were affixed by glutaraldehyde in flat bottom wells of a microtiter plate. The affixed cells were then treated with rabbit anti-KLH or rabbit anti-HTCA alone or in the presence of several levels of ACTH. After washing, the microtiter wells were treated with goat antibody to rabbit immunoglobulin the goat antibody being coupled to the enzyme alkaline phosphatase. After washing away unbound antibody-phosphatase complex, p-nitrophenyl phosphate was added and the enzyme dependent development of absorbancy at […] was monitored. […] ACTH and anti-HTCA appeared competitive for the same binding site on the mouse adrenal tumor (Y-1) cells. Rabbit anti KLH had no effect (shaded region).

HTCA, sequence (as listed by the source): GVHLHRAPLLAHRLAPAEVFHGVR
T2 sequence (P32300 whole entry): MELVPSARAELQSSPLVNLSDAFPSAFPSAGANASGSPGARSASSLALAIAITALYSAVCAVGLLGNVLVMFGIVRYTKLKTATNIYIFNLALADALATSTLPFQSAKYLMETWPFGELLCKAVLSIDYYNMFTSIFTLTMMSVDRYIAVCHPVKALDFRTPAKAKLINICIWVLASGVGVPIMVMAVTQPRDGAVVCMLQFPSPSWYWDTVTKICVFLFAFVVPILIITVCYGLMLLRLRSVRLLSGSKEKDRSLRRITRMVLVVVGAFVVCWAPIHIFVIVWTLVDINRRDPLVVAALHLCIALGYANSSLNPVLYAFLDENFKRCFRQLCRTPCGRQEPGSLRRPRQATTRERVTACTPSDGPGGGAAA

C=CCN1CC[C@]23c4c5ccc(O)c4O[C@H]2C(=O)CC[C@@]3(O)[C@H]1C5 [naloxone]
reversal of serum-induced catatonia (in words) [1]: reversed

QRDKGRLALLGGHEPAV [gamma-odne, H2 N--gln--arg--asp--lys--gly--arg--leu--ala--leu--leu--gly--gly--his--glu--pro--ala--val--COOH]
gamma-endorphin binding to coated wells, absorbance at 405 nM (in words) [2]: significantly bound
inhibition at 100 µM ([3]; 10^-4 M): 75 ± 0.6%
inhibition at 10 µM ([3]; 10^-5 M): 36 ± 2.1%
inhibition at 1 µM ([3]; 10^-6 M, 30 min preincubation with 10^-11 M label): 24.7 ± 3.9%

ACTH: Synthetic ACTH, fragment 1-24, obtained from Organon; unlabelled ACTH of RIA kit in later examples
% Inhibition of Specific Binding ([4]; 50 pg/ml ACTH in FCS, Log10 Dilution 0): 91%
Log10 Dilution at which 50% inhibition occurred ([4]; 50 pg/ml serum sample): -1.1
% Inhibition of Specific Binding ([4]; 50 pg/ml, Log10 Dilution -0.5): 73%
% Inhibition of Specific Binding ([4]; 50 pg/ml, Log10 Dilution -1.0): 40%
% Inhibition of Specific Binding ([4]; 50 pg/ml, Log10 Dilution -1.5): 44%
% Inhibition of Specific Binding ([4]; 50 pg/ml, Log10 Dilution -2.0): 9%
% Inhibition of Specific Binding ([4]; 50 pg/ml, Log10 Dilution -2.5): 1%
% Inhibition of Specific Binding ([4]; 50 pg/ml, Log10 Dilution -3.0): 0%
% Inhibition of Specific Binding ([4]; 50 pg/ml, Log10 Dilution -3.5): 0%
% Inhibition of Specific Binding ([4]; 500 pg/ml ACTH in FCS, Log10 Dilution 0): 85%
Log10 Dilution at which 50% inhibition occurred ([4]; 500 pg/ml serum sample): -2.0
% Inhibition of Specific Binding ([4]; 500 pg/ml, Log10 Dilution -0.5): 90%
% Inhibition of Specific Binding ([4]; 500 pg/ml, Log10 Dilution -1.0): 77%
% Inhibition of Specific Binding ([4]; 500 pg/ml, Log10 Dilution -1.5): 57%
% Inhibition of Specific Binding ([4]; 500 pg/ml, Log10 Dilution -2.0): 53%
% Inhibition of Specific Binding ([4]; 500 pg/ml, Log10 Dilution -2.5): 35%
% Inhibition of Specific Binding ([4]; 500 pg/ml, Log10 Dilution -3.0): 32%
% Inhibition of Specific Binding ([4]; 500 pg/ml, Log10 Dilution -3.5): 20%
Corticosterone equivalents ([5]; Experiment 1): 1.08 µg/mL
Corticosterone equivalents ([5]; Experiment 2): 1.42 µg/mL
Percent Specific Binding ([6]; competitor 20 pg/ml): 90%
Percent Specific Binding ([6]; competitor 50 pg/ml): 77.5%
Percent Specific Binding ([6]; competitor 100 pg/ml): 62.2%
Percent Specific Binding ([6]; competitor 200 pg/ml): 42%
Percent Specific Binding ([6]; competitor 500 pg/ml): 21.6%
effect on binding to Y-1 cells, absorbancy at 405 nM (in words) [7]: blocked binding of the anti-HTCA in a dose dependent manner

From patent US5077195A, “Polypeptides complementary to peptides or proteins having an amino acid sequence or nucleotide coding sequence at least partially known and methods of design therefor” (Board of Reagents, The University of Texas System, priority 1986, dated 1991)
